In patent US12234216B2, “Isotopologues salts, crystalline forms, stereoisomers, of methylone and ethylone and methods of use thereof” (Terran Biosciences Inc., priority 2021, dated 2025):
Counter-ions that a name gives are not always drawn.

Assays:
Male Sprague-Dawley rats = test: Rat elevated zero-maze model of anxiety; format: in vivo
Description: The rat zero-maze model is a refined alternative to the plus-maze, the most widely used animal model of anxiety, and consists of an elevated annular platform, divided equally into four quadrants. Two opposite quadrants are enclosed by Perspex walls on both the inner and the outer edges of the platform, while the remaining two opposite quadrants are open being enclosed only by a Perspex “lip”. Animals will show a preference for the closed areas, and avoidance of the open sections is assumed to stem from a rodent's natural aversion to open, exposed spaces. The primary index of anxiety, which reflect changes in open arm preference, is the percentage of time spent on the open areas. A reduction in the amount of activity on the open areas is considered to reflect an increase in anxiety. Other, ethologically-based behaviours are also assessed as indices of anxiety. One of the most important is stretched attend postures (SAP) from closed to open quadrants. […] Shepherd, J K; et al., (1994) Behavioural and pharmacological validation of the elevated “zero-maze” as an animal model of anxiety. Psychopharmacol., 116:56-64.
Male Sprague-Dawley 200-250 g (Envigo UK) rats were used. Animals were group-housed (5 per cage; cage size: 40×40×20 cm) in a temperature-controlled environment (22±2° C.), under a 12 h light-dark cycle (lights on: 08:00 hours) for one week prior to testing. Food and water were freely available. Number of animals per group=5. Animals were moved into the experimental room 16-24 hours before testing.
The elevated 0-maze comprises a black Perspex annular platform (105 cm diameter, 10 cm width) elevated to 65 cm above ground level, divided equally into four quadrants. Two opposite quadrants are enclosed by clear red Perspex walls (27 cm high) on both the inner and outer edges of the platform, while the remaining two opposite quadrants are surrounded only by a Perspex “lip” (1 cm high) which serves as a tactile guide to animals on these open areas.
Subjects were weighed and tail marked before being injected. After a specified pre-treatment time, subjects were placed in a closed quadrant and a 5-min test period were recorded on videotape for subsequent analysis. The maze were cleaned with 5% methanol/water solution and dried thoroughly between test sessions. Behavioural measures comprise percentage time spent on the open areas (% TO) and frequency of stretched attend postures (SAP) from closed to open quadrants. Since the control groups were all treated identically with the same vehicle these were combined to increase power. The Chlordiazepoxide groups were also treated identically with the same dose so these were also combined to increase power. Animals are scored as being in the open area when all four paws were in an open quadrant and in the closed area only when all four paws have passed over the open-closed divide. All testing were carried out between 9.00 and 16.00 hours.
For each study, a 1-way ANOVA was conducted across vehicle, CDP, and drug treatment groups. Each group was compared to the vehicle group and a p-value for treatment determined by Fishers Least Significant Difference (LSD) test. This analysis was performed in GraphPad Prism (Version 9). Formulations: […]
Intraperitoneal (IP): Racemic methylone HCl was formulated in Vehicle 1 (Saline) for injection to concentrations of 1, 3 and 6 mg/mL to provide doses of 5, 15 and 30 mg/kg when administered ip in 5 mL/kg dosing volumes.
Intraperitoneal (IP): S-methylone HCl was formulated in Vehicle 1 (Saline) for injection to concentrations of 0.5, 1, 1.5, 3 and 6 mg/mL to provide doses of 2.5, 5, 7.5, 15 and 30 mg/kg when administered ip in 5 mL/kg dosing volumes.
Intraperitoneal (IP): R-methylone HCl was formulated in Vehicle 1 (Saline) for injection to concentrations of 1, 3 and 6 mg/mL to provide doses of 5, 15 and 30 mg/kg when administered ip in 5 mL/kg dosing volumes. […]

[1] = Plasma and brain concentration at the end of the zero maze study; format: in vivo, rat; details: terminal samples after 5, 15, 30 mg/kg ip; FIG. 68 and FIG. 69
Protocol: Terminal sampling. At the end of the study, terminal blood was collected from 2 of the vehicle treated rats (>5 mL) and from all methylone HCl treated rats (500 uL) by CP under CO2. Blood samples were placed into Eppendorf tubes on ice containing 22 μL/mL blood (vehicle treated) or 11 μL EDTA (93 mg/mL) (Methylone HCl treated rats) and gently mixed. After no longer than 30 min, blood samples were centrifuged at 10,000 rpm×3 min and plasma samples (>2 mL (vehicle) or 2×100 μL (Methylone HCl treated) placed into Eppendorf tubes (Vehicle) or 96 well plates on dry ice. Immediately after blood sampling, brains were excised, rinsed in saline, blotted, weighed and snap-frozen in liquid N2. All samples were stored at −20° C. until dispatched on dry ice for analysis.
Terminal sampling. At the end of the study, terminal blood was collected from 2 of the vehicle treated rats (>5 mL) and from all S-methylone HCl treated rats (500 uL) by CP under CO2. Blood samples were placed into Eppendorf tubes on ice containing 22 μL/mL blood (vehicle treated) or 11 μL EDTA (93 mg/mL) (S-methylone HCl treated rats) and gently mixed. […]

[2] = Solubility screen (solvent aliquots, visual inspection); format: physicochemical
Protocol: The experiments were carried out by adding the test solvent in aliquots to weighed portions of solid. Whether dissolution had occurred was judged by visual inspection after addition of each solvent aliquot. Solubility numbers recorded in Table 4 were calculated by dividing the weight of the sample by the total amount of solvent used to dissolve the sample. The actual solubilities may be greater than the numbers calculated because of the use of solvent aliquots that were too large or because of slow dissolution rates. All solubility measurements were carried out at room temperature unless noted otherwise.

## CNC(C)C(=O)c1ccc2c(c1)OCO2 (racemic) [(rac)-Methylone Hydrochloride, 3,4-methylenedioxy-N-methylcathinone hydrochloride]
Male Sprague-Dawley rats; 5 mg/kg ip
  overall effect on anxiety: anxiogenic effect
Male Sprague-Dawley rats; 5 mg/kg ip, vs placebo
  time spent in the open arms: decrease in time spent in the open arms vs placebo
Male Sprague-Dawley rats; 15 mg/kg ip
  frequency of SAPs: dose dependent decrease in SAPs
  overall effect on anxiety: mixed anxiogenic anxiolytic effect
Male Sprague-Dawley rats; 15 mg/kg ip vs chlordiazepoxide 6 mg/kg ip
  decrease in SAPs compared with chlordiazepoxide: not as effective as chlordiazepoxide
Male Sprague-Dawley rats; 15 mg/kg ip, vs placebo
  time spent in the open arms: no difference from placebo in time spent in the open arms
Male Sprague-Dawley rats; 30 mg/kg ip
  frequency of SAPs: decrease in SAPs
  time spent in the open arms: significant decrease in time spent in the open arms
Male Sprague-Dawley rats; high dose level
  anxiolytic effects compared with chlordiazepoxide: anxiolytic effects as effective as chlordiazepoxide
Male Sprague-Dawley rats; lower doses, ip
  anxiogenic effects at lower doses: anxiogenic effects at lower doses
Male Sprague-Dawley rats; specific doses, ip, 30 min pretest, FIGS. 62-64
  time in the open arms: increase time in the open arms
Male Sprague-Dawley rats; specific doses, ip, 30 min pretest, vs chlordiazepoxide 6 mg/kg, FIGS. 65-67
  frequency of SAPs: decreased the frequency of SAPs as effectively as the benzodiazepine chlordiazepoxide
[1]
  concentration in plasma and brain: increased in both brain and plasma at the higher doses
[2]; MeOH, room temperature
  Solubility: 48 mg/mL
[2]; MeOH/CHCl3 50/50, room temperature
  Solubility: 45 mg/mL
